In article PMC8963254, “Effects of Lysine N-ζ-Methylation in Ultrashort Tetrabasic Lipopeptides (UTBLPs) on the Potentiation of Rifampicin, Novobiocin, and Niclosamide in Gram-Negative Bacteria” (Antibiotics, 2022):
≈ marks a conversion by molar mass, not a printed value. Read-outs that look alike come from different tables or passages of the source.

Tests used:
[1] = system: P. aeruginosa PA259-96196; type: cell-based, Pseudomonas aeruginosa; conditions: for MICUTBLP: UTBLP alone
Experimental: (§1) The synergy of the UTBLPs with various antibiotics was assessed using checkerboard assay as previously described. Briefly, the combination of antibiotic and OMP at varying concentrations were incubated with bacterial inoculum (5 × 10^5 CFU/mL final concentration) at 37 °C for 18 h. Growth in the form of turbidity was confirmed using an EMax Plus microplate reader (Molecular Devices, Union City, CA, USA) at 590 nm. Fractional inhibitory concentration index (FICI) was used to evaluate the interaction between the antibiotic and the OMP. FICI is the sum of the FIC of the antibiotic and the FIC of the OMP. The FIC value is calculated by dividing the MIC of the agents in combination by the MIC of the agent alone. FICI ≤ 0.5 is synergistic, 0.5 < x ≤ 4 is additive, and >4 is antagonistic.

[2] = system: P. aeruginosa PA262-101856; type: cell-based, Pseudomonas aeruginosa; conditions: for MICUTBLP: UTBLP alone
Experimental: as §1

[3] = system: P. aeruginosa PAO1; type: cell-based, Pseudomonas aeruginosa; conditions: for MICUTBLP: UTBLP alone
Experimental: as §1

[4] = system: A. baumannii AB92247; test: microbe, parasite or virus in culture; type: cell-based, Acinetobacter baumannii; conditions: AB92247, 18 h
Experimental: (§2) The in vitro antibacterial activity of the UTBLPs was assessed against wild-type and clinically isolated bacterial strains. To obtain the MIC of the compounds, the microbroth dilution susceptibility assay was performed according to the Clinical and Laboratory Standards Institute (CLSI, Wayne, PA, USA) guidelines and as previously described. Briefly, the compounds at varying concentrations were incubated with bacterial inoculum (5 × 10^5 CFU/mL final concentration) at 37 °C for 18 h. Growth in the form of turbidity was confirmed using an EMax Plus microplate reader (Molecular Devices, San Jose, CA, USA) at 590 nm.

[5] = system: A. baumannii AB027; test: microbe, parasite or virus in culture; type: cell-based, Acinetobacter baumannii; conditions: AB027, 18 h
Experimental: as §2

[6] = system: E. coli 94474; type: cell-based, Escherichia coli; conditions: for MICUTBLP: UTBLP alone
Experimental: as §1

[7] = system: E. cloacae 118564; type: cell-based, Enterobacter cloacae; conditions: for MICUTBLP: UTBLP alone
Experimental: as §1

[8] = system: A. baumannii ATCC 17978; type: cell-based, Acinetobacter baumannii; conditions: ATCC 17978, 18 h
Experimental: as §2

[9] = system: S. aureus ATCC 29213; type: cell-based, Staphylococcus aureus
Experimental: as §1

[10] = system: MRSA ATCC 33592; type: cell-based, Staphylococcus aureus
Experimental: as §1

[11] = system: K. pneumoniae 113250; type: cell-based, Klebsiella pneumoniae; conditions: for MICUTBLP: UTBLP alone
Experimental: as §1

[12] = system: E. faecalis ATCC 29212; type: cell-based, Enterococcus faecalis; conditions: ATCC 29212, 18 h
Experimental: as §2

[13] = system: A. baumannii AB027; type: cell-based, Acinetobacter baumannii; conditions: for MICUTBLP: UTBLP alone
Experimental: as §1

[14] = system: A. baumannii 92247; type: cell-based, Acinetobacter baumannii; conditions: for MICUTBLP: UTBLP alone
Experimental: as §1

[15] = system: A. baumannii ATCC 17978; type: cell-based, Acinetobacter baumannii; conditions: for MICUTBLP: UTBLP alone
Experimental: as §1

[16] = system: E. faecium ATCC 27270; type: cell-based, Enterococcus faecium; conditions: ATCC 27270, 18 h
Experimental: as §2

[17] = UTBLP in combination with novobiocin
[18] = UTBLP in combination with rifampicin
[19] = novobiocin in combination with the UTBLP
[20] = rifampicin in combination with the UTBLP
[21] = UTBLP in combination with chloramphenicol
[22] = UTBLP in combination with niclosamide
[23] = chloramphenicol in combination with the UTBLP
[24] = niclosamide in combination with the UTBLP
[25] = UTBLP alone, plate with chloramphenicol

For `CCCCCCCC(=O)N[C@@H](CCCCN)C(=O)NCCCN(CCCNC(=O)[C@H](CCCCN)NC(=O)CCCCCCC)CC(=O)N[C@@H](CCCCN)C(N)=O` [UTBLP 1], the Interpretation ([1]; UTBLP + novobiocin) was “Synergy (FICI ≤ 0.5 is synergistic)”, the Interpretation ([1]; UTBLP + rifampicin) was “Synergy (FICI ≤ 0.5 is synergistic)” and the MICUTBLP ([1]; plate with novobiocin) was > 128 µg/mL. For the same molecule, the MICUTBLP ([1]; plate with rifampicin) was > 128 µg/mL, the “MICUTBLP [MICcombo]” value [1, 17] was 8 µg/mL and the “MICUTBLP [MICcombo]” value [1, 18] was 16 µg/mL. The “MICantibiotic [MICcombo]” value [1, 19] was 128 µg/mL, the “MICantibiotic [MICcombo]” value [1, 20] was 0.5 µg/mL and the Interpretation ([2]; UTBLP + novobiocin) was “Synergy (FICI ≤ 0.5 is synergistic)”. The Interpretation ([2]; UTBLP + rifampicin) was “Synergy (FICI ≤ 0.5 is synergistic)”, the MICUTBLP ([2]; plate with novobiocin) was 128 µg/mL and the MICUTBLP ([2]; plate with rifampicin) was 128 µg/mL. The “MICUTBLP [MICcombo]” value [2, 17] was 16 µg/mL, the “MICUTBLP [MICcombo]” value [2, 18] was 16 µg/mL and the “MICantibiotic [MICcombo]” value [2, 19] was 64 µg/mL. The “MICantibiotic [MICcombo]” value [2, 20] was 256 µg/mL, the Interpretation ([3]; UTBLP + chloramphenicol) was “Synergy (FICI ≤ 0.5 is synergistic)” and the Interpretation ([3]; UTBLP + niclosamide) was “Additive (0.5 < x ≤ 4 is additive)”. For the same molecule, the Interpretation ([3]; UTBLP + novobiocin) was “Synergy (FICI ≤ 0.5 is synergistic)”, the Interpretation ([3]; UTBLP + rifampicin) was “Synergy (FICI ≤ 0.5 is synergistic)” and the MICUTBLP ([3]; plate with chloramphenicol) was > 128 µg/mL. For the same molecule, the MICUTBLP ([3]; plate with niclosamide) was > 128 µg/mL, the MICUTBLP ([3]; plate with novobiocin) was > 128 µg/mL and the MICUTBLP ([3]; plate with rifampicin) was > 128 µg/mL. For the same molecule, the “MICUTBLP [MICcombo]” value [3, 21] was 2 µg/mL, the “MICUTBLP [MICcombo]” value [3, 22] was 0.25 µg/mL and the “MICUTBLP [MICcombo]” value [3, 17] was 16 µg/mL. The “MICUTBLP [MICcombo]” value [3, 18] was 4 µg/mL, the “MICantibiotic [MICcombo]” value [3, 23] was 4 µg/mL and the “MICantibiotic [MICcombo]” value [3, 24] was 1024 µg/mL. The “MICantibiotic [MICcombo]” value [3, 19] was 32 µg/mL, the “MICantibiotic [MICcombo]” value [3, 20] was 2 µg/mL and the MIC [4] was 64 µg/mL (≈ 77.6 µM). For the same molecule, the MIC [5] was 128 µg/mL (≈ 155 µM), the Interpretation ([6]; UTBLP + novobiocin) was “Synergy (FICI ≤ 0.5 is synergistic)” and the Interpretation ([6]; UTBLP + rifampicin) was “Synergy (FICI ≤ 0.5 is synergistic)”. The MICUTBLP ([6]; plate with novobiocin) was > 128 µg/mL, the MICUTBLP ([6]; plate with rifampicin) was > 128 µg/mL and the “MICUTBLP [MICcombo]” value [6, 17] was 8 µg/mL. For the same molecule, the “MICUTBLP [MICcombo]” value [6, 18] was 8 µg/mL, the “MICantibiotic [MICcombo]” value [6, 19] was 4 µg/mL and the “MICantibiotic [MICcombo]” value [6, 20] was 0.125 µg/mL. For the same molecule, the Interpretation ([7]; UTBLP + novobiocin) was “Synergy (FICI ≤ 0.5 is synergistic)”, the Interpretation ([7]; UTBLP + rifampicin) was “Synergy (FICI ≤ 0.5 is synergistic)” and the MICUTBLP ([7]; plate with novobiocin) was > 128 µg/mL. The MICUTBLP ([7]; plate with rifampicin) was > 128 µg/mL, the “MICUTBLP [MICcombo]” value [7, 17] was 8 µg/mL and the “MICUTBLP [MICcombo]” value [7, 18] was 8 µg/mL. For the same molecule, the “MICantibiotic [MICcombo]” value [7, 19] was 2 µg/mL, the “MICantibiotic [MICcombo]” value [7, 20] was 0.125 µg/mL and the MIC [8] was >128 µg/mL. The MICUTBLP [9, 25] was 64 µg/mL, the “MICUTBLP [MICcombo]” value [9, 21] was 0.25 µg/mL and the “MICchloramphenicol [MICcombo]” value [9, 23] was 8 µg/mL. For the same molecule, the Interpretation ([10]; UTBLP + chloramphenicol) was “Additive (0.5 < x ≤ 4 is additive)”, the MICUTBLP [10, 25] was 128 µg/mL and the “MICUTBLP [MICcombo]” value [10, 21] was 0.25 µg/mL. The “MICchloramphenicol [MICcombo]” value [10, 23] was 64 µg/mL, the Interpretation ([11]; UTBLP + novobiocin) was “Synergy (FICI ≤ 0.5 is synergistic)” and the Interpretation ([11]; UTBLP + rifampicin) was “Synergy (FICI ≤ 0.5 is synergistic)”. The MICUTBLP ([11]; plate with novobiocin) was > 128 µg/mL, the MICUTBLP ([11]; plate with rifampicin) was > 128 µg/mL and the “MICUTBLP [MICcombo]” value [11, 17] was 8 µg/mL. The “MICUTBLP [MICcombo]” value [11, 18] was 16 µg/mL, the “MICantibiotic [MICcombo]” value [11, 19] was 16 µg/mL and the “MICantibiotic [MICcombo]” value [11, 20] was 0.5 µg/mL. The MIC [12] was 128 µg/mL (≈ 155 µM), the Interpretation ([13]; UTBLP + novobiocin) was “Synergy (FICI ≤ 0.5 is synergistic)” and the Interpretation ([13]; UTBLP + rifampicin) was “Synergy (FICI ≤ 0.5 is synergistic)”. For the same molecule, the MICUTBLP ([13]; plate with novobiocin) was 128 µg/mL, the MICUTBLP ([13]; plate with rifampicin) was 128 µg/mL and the “MICUTBLP [MICcombo]” value [13, 17] was 8 µg/mL. For the same molecule, the “MICUTBLP [MICcombo]” value [13, 18] was 8 µg/mL, the “MICantibiotic [MICcombo]” value [13, 19] was 0.125 µg/mL and the “MICantibiotic [MICcombo]” value [13, 20] was 0.063 µg/mL. For the same molecule, the Interpretation ([14]; UTBLP + novobiocin) was “Synergy (FICI ≤ 0.5 is synergistic)”, the Interpretation ([14]; UTBLP + rifampicin) was “Synergy (FICI ≤ 0.5 is synergistic)” and the MICUTBLP ([14]; plate with novobiocin) was 64 µg/mL. The MICUTBLP ([14]; plate with rifampicin) was 64 µg/mL, the “MICUTBLP [MICcombo]” value [14, 17] was 4 µg/mL and the “MICUTBLP [MICcombo]” value [14, 18] was 4 µg/mL. The “MICantibiotic [MICcombo]” value [14, 19] was 0.25 µg/mL, the “MICantibiotic [MICcombo]” value [14, 20] was 0.125 µg/mL and the Interpretation ([15]; UTBLP + chloramphenicol) was “Additive (0.5 < x ≤ 4 is additive)”. For the same molecule, the Interpretation ([15]; UTBLP + niclosamide) was “Synergy (FICI ≤ 0.5 is synergistic)”, the Interpretation ([15]; UTBLP + novobiocin) was “Synergy (FICI ≤ 0.5 is synergistic)” and the Interpretation ([15]; UTBLP + rifampicin) was “Synergy (FICI ≤ 0.5 is synergistic)”. The MICUTBLP ([15]; plate with chloramphenicol) was > 128 µg/mL, the MICUTBLP ([15]; plate with niclosamide) was > 128 µg/mL and the MICUTBLP ([15]; plate with novobiocin) was > 128 µg/mL. The MICUTBLP ([15]; plate with rifampicin) was > 128 µg/mL, the “MICUTBLP [MICcombo]” value [15, 21] was 32 µg/mL and the “MICUTBLP [MICcombo]” value [15, 22] was 8 µg/mL. The “MICUTBLP [MICcombo]” value [15, 17] was 16 µg/mL, the “MICUTBLP [MICcombo]” value [15, 18] was 8 µg/mL and the “MICantibiotic [MICcombo]” value [15, 23] was 32 µg/mL. The “MICantibiotic [MICcombo]” value [15, 24] was 0.5 µg/mL, the “MICantibiotic [MICcombo]” value [15, 19] was 0.125 µg/mL and the “MICantibiotic [MICcombo]” value [15, 20] was 0.125 µg/mL. For the same molecule, the MIC [16] was 64 µg/mL (≈ 77.6 µM).
